Laboratory results reported in patent US11091476B2, “Protein kinase inhibitors, preparation method and medical use thereof” (Gan & Lee Pharmaceuticals, priority 2015, dated 2021).

Key:
[1] = system: Human breast cancer cells MDA-MB-231; assay: Inhibition of proliferation of human breast cancer cell MDA-MB-231 (DAPI, In Cell Analyzer); assay type: cell-based; settings: for IC50: Homo sapiens, MDA-MB-231, 72 hours incubation, read-out: IC50, proliferation of human breast cancer cell MDB-MA-231; for Inhibitory activity on proliferation of the MDA-MB-231 cell line, in words: experimental conclusion
Experimental: 200 μl of medium containing 0.2% DMSO (dimethylsulfoxide) was added into B2 to B10 of a 96-well plate; 300 μl of the above solution was added into B1; and • c. 100 μl of solution was taken from well B1, added into B2, and mixed well; then 100 μl of the resulting solution was taken and added into B3, and dilution was carried out in sequence to B9, so as to obtain standard solutions diluted by 3-fold sequentially. • (2) Preparation of Test Compound Solutions • a. […] 200 μl of medium containing 0.2% DMSO (dimethylsulfoxide) was added into H2 to H10 of the 96-well plate; and 300 μl of the above solution was added into H1; and • c. 100 μl of solution was taken from well H1, added into H2, and mixed well; then 100 μl of the resulting solution was taken and added into H3, and dilution was carried out in sequence to […], so as to obtain test compound solutions diluted by 3-fold sequentially.
2.3 Experimental Process: • 2.3.1: MDA-MB-231 cells were inoculated into a 96-well cell plate with black transparent bottom at 4000 cells/100 μl/well, and cultured overnight at 37° C.; • 2.3.2: The above samples were added at 100 μl/well to a culture plate inoculated with cells, gently patted to mix well, and incubated at 37° C. for 72 hours; • 2.3.3: Fixation: the cell plate was taken out, the medium was removed, and 50 μl of 4% paraformaldehyde was added per well to fix for 10 minutes; • 2.3.4: 50 μl of 0.1M glycine was added to neutralize for 10 minutes; • 2.3.5: 1×PBS (phosphate buffer pH 7.2) was used to wash twice; • 2.3.6: Permeabilization: 50 μl of 0.2% TRITON-X®100 (Triton) was added per well, and permeabilization was carried out at room temperature for 10 minutes; • 2.3.7: 1×PBS (Phosphate buffer pH 7.2) was used to wash twice; • 2.3.8: 5 mg/mL DAPI stock solution was diluted at a ratio of 1:5000 (final concentration of 1 μg/ml), and staining was performed at room temperature for 20 minutes; • 2.3.9: 1×PBS (Phosphate buffer pH 7.2) was used to wash three times; and • 2.3.10: Scanning and analysis were performed by an IN cell analyzer 2200.
(§1) The inhibition rate of each compound at each concentration point was calculated by the formula as follows and curve fitting was performed by GraphPad Prism 5 software to obtain the IC50 value.

CDK4/CyclinE1 = CDK4/CyclinE1 (Homo sapiens, UniProt P11802); settings: read-out: CDK4/CyclinE1 IC50
CDK4/CyclinE1, sequence (P11802 2-303 limits assumed): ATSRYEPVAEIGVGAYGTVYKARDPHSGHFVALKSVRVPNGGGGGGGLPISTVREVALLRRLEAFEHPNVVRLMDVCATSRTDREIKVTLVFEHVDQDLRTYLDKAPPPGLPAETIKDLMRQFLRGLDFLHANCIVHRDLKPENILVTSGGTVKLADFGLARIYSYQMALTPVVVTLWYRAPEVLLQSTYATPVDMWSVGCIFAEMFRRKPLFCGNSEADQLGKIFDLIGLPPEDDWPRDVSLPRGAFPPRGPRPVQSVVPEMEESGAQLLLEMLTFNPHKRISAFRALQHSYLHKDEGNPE
Experimental: Measurement of CDK kinase inhibitory activity of the compounds of this disclosure.
In vitro inhibitory effect of the compounds of the disclosure on CDK (CDK1, CDK4 and CDK6) kinase activity was tested by the following method.
1.1 Instrument and Kit Information
1.2 Experimental Preparation • 1.2.1 Preparation of Kinase Reaction Buffer I: The 5×Reaction Buffer A (Promega; V307A-C) provided in the kit was mixed and diluted with MILLI-Q® H2O and 0.1 M DTT (dithiothreitol) to give 4× kinase buffer, and then MILLI-Q® H2O was further added to finally formulate the solution into 1× Kinase buffer.
The final concentration was 50 μM. • b. 40 μl of kinase reaction buffer II was added into B2 to B10 of a 96-well plate, and 50 μl of the above solution was added into B1; • c. […]
1.3 Experimental process: • 1.3.1: 2 μl of compound solutions of various concentrations were taken, added to a 384-well plate, and centrifuged 3 minutes; • 1.3.2: 4 μl of kinase solution was added to each well, centrifuged at 5000 rpm and 18° C. for 10 minutes, and shaken on a plate shaker for 10 minutes; • 1.3.3: 4 μl of mixed solution of substrate and ATP was added to each well, centrifuged at 5000 rpm and 18° C. for 10 minutes, and shaken on a plate shaker at 37° C. for 90 minutes; • 1.3.4: The 384-well plate was taken out, and allowed to stand to room temperature; • 1.3.5: 10 μl of ADP-GLO™ reagent was added to each well, centrifuged at 5000 rpm and 18° C. for 18 minutes, and shaken on a plate shaker at 25° C. for 40 minutes, and then the reaction was stopped; • 1.3.6: 20 μl of kinase detection reagent was added to each well, centrifuged at 5000 rpm and 18° C. for 10 minutes, and shaken on a plate shaker at 25° C. for 30 minutes; and • 1.3.7: M1000pro MICROPLATE READER was used to read […] values.
as §1

| Structure (SMILES) | IC50 [1] | Inhibitory activity on proliferation of the MDA-MB-231 cell line, in words [1] | IC50 (CDK4/CyclinE1) |
| --- | --- | --- | --- |
| CCN1CCC(c2ccc(Nc3ncc(F)c(-c4cc(F)c5c(c4)C4(CCCC4)C(C)=N5)n3)nc2)CC1 [Example 12, N-(5-(1-ethylpiperidin-4-yl)pyridin-2-yl)-5-fluoro-4-(7′-fluoro-2′-methylspiro [cyclopentane-1,3′-indol]-5′-yl)pyrimidine-2-amino] | 183 nM | significant inhibitory activity | 4.46 nM |
| CC1=Nc2c(F)cc(-c3nc(Nc4ccc(C5CCN(C)CC5)cn4)ncc3F)cc2C12CCCC2 [Example 17, 5-Fluoro-4-(7′-fluoro-2′-methylspiro[cyclopentane-1,3′-indol]-5′-yl)-N-(5-(1-methylpiperidin-4-yl)pyridin-2-yl)pyrimidine-2-amino] | 110 nM | significant inhibitory activity | 2.62 nM |
| CCN1CCN(Cc2ccc(Nc3ncc(F)c(-c4cc(F)c5nc(C)n(C(C)C)c5c4)n3)nc2)CC1 [LY2835219, reference compound] | 229 nM |  |  |
